According to PubChem BioAssay (NCI):
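Exposure lasted 48 hours, with cells grown in 96-well plates and compounds tested at five concentrations. Here, GI50 denotes the concentration required for 50% inhibition of growth. At the TGI there is no net growth.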

Experiments:
Assay in all cases: NCI anticancer screen, dose series, 48 h
DMS 114 small cell lung = tested on: DMS 114 small cell lung
SF-295 CNS = tested on: SF-295 CNS
SNB-75 CNS = tested on: SNB-75 CNS
HOP-18 NSCLC = tested on: HOP-18 NSCLC
UACC-62 melanoma = tested on: UACC-62 melanoma
EKVX NSCLC = tested on: EKVX NSCLC
CCRF-CEM leukemia = tested on: CCRF-CEM leukemia
HOP-62 NSCLC = tested on: HOP-62 NSCLC
786-0 renal = tested on: 786-0 renal
TK-10 renal = tested on: TK-10 renal
BT-549 breast = tested on: BT-549 breast

SMILES | TGI (DMS 114 small cell lung) [µM] | TGI (SF-295 CNS) [µM] | TGI (SNB-75 CNS) [µM] | TGI (HOP-18 NSCLC) [µM] | TGI (UACC-62 melanoma) [µM] | TGI (EKVX NSCLC) [µM] | TGI (CCRF-CEM leukemia) [µM] | TGI (HOP-62 NSCLC) [µM] | GI50 (SF-295 CNS) [µM] | GI50 (SNB-75 CNS) [µM] | GI50 (HOP-18 NSCLC) [µM] | GI50 (HOP-62 NSCLC) [µM] | GI50 (UACC-62 melanoma) [µM] | GI50 (EKVX NSCLC) [µM] | GI50 (CCRF-CEM leukemia) [µM] | TGI (786-0 renal) [µM] | TGI (TK-10 renal) [µM] | TGI (BT-549 breast) [µM]
CC1(C)N=C(N)N=C(N)N1c1ccc(OCCCOc2ccccc2)c(Cl)c1 | 14.3 | > 43.7 | 17.3 | 17.6 | 18.3 | 14.4 | 29.7 | – | – | – | – | – | – | – | – | – | – | –
CCOC(=O)C[n+]1ccc2c([nH]c3cc(OC)ccc32)c1C | > 100 | > 100 | > 100 | > 100 | > 100 | > 100 | > 100 | > 100 | – | – | – | – | – | – | – | – | – | –
NC1CCCCC1N.O=S(=O)([O-])CCCN1CCN(CCO)CC1.O=S(=O)([O-])CCCN1CCN(CCO)CC1.[Pt+4] | – | > 100 | > 100 | > 100 | 33.7 | > 100 | > 50.5 | > 100 | 4.1 | > 39.9 | 21.6 | > 20.7 | 6.91 | 55.4 | 2.21 | – | – | –
COc1ccc(N2C(=O)C(N3C(=O)C=CC3=O)C2C=O)cc1 (stereo unspecified) | – | > 100 | > 100 | > 100 | > 100 | > 100 | > 100 | > 100 | – | – | – | – | – | – | – | > 100 | > 100 | –
CCCCCCc1cn([C@H]2C[C@H](O)[C@@H](CO)O2)c(=O)[nH]c1=O | > 100 | > 31.6 | > 100 | > 100 | > 31.6 | > 100 | > 100 | – | – | – | – | – | – | – | – | – | – | –
O=C1OC(c2ccccc2)=N/C1=C/N1CCCC1C(=O)O (stereo unspecified) | > 100 | > 100 | > 100 | > 100 | > 100 | > 100 | > 100 | > 100 | – | – | – | – | – | – | – | > 100 | > 100 | –
COc1cccc2c1[C@]1(O)C(O)CCCC21 (stereo partly specified) | > 100 | > 100 | > 100 | > 100 | > 100 | – | > 100 | > 100 | – | – | – | – | – | – | – | > 100 | > 100 | –
O=C1OC2C=CC1C1(CCOC1=O)C2 (stereo unspecified) | > 100 | – | > 100 | > 100 | 94.6 | > 100 | > 100 | > 100 | – | – | – | – | – | – | – | > 100 | > 100 | –
Nc1ccc(-c2nc3ccccc3s2)cc1 | 39.1 | > 74.9 | 58.1 | > 100 | 38.6 | 87.4 | 54.4 | 60.3 | – | – | – | – | – | – | – | 29.7 | 42.3 | 28.9
CN(CCN(C)C(=O)CCn1ccc(=O)[nH]c1=O)C(=O)CCn1ccc(=O)[nH]c1=O | > 100 | > 100 | > 100 | – | > 100 | > 100 | > 100 | > 100 | – | – | – | – | – | – | – | > 100 | > 100 | –
COc1cc(C2(C)SCCCS2)c(I)c(OC)c1OC | > 100 | > 100 | > 100 | > 100 | > 100 | > 100 | > 100 | > 100 | – | – | – | – | – | – | – | > 100 | > 100 | –
CC(=O)Nc1ccc(/C=C(\NC(=O)c2ccccc2)C(=O)NNS(=O)(=O)c2ccc(C)cc2)cc1 | – | > 100 | > 100 | > 100 | > 100 | > 100 | > 100 | > 100 | – | – | – | – | – | – | – | – | > 100 | –
Cn1c(=O)c2[nH]c(CCC(=O)O)nc2n(C)c1=O | – | > 100 | > 100 | – | > 100 | > 100 | > 100 | > 100 | – | – | – | – | – | – | – | > 100 | > 100 | > 100
c1ccc(-c2[nH]c(-c3ccccc3)c(-c3cnccn3)c2-c2cnccn2)cc1 | > 100 | > 100 | > 100 | > 100 | > 100 | > 100 | > 100 | > 100 | – | – | – | – | – | – | – | > 100 | > 100 | –
COC(=O)C(C(=O)OC)C1CC(=O)c2c(Br)sc(Br)c21 (stereo unspecified) | – | 60.9 | 75 | – | 29.6 | 32.4 | 15.4 | 46.3 | – | – | – | – | – | – | – | > 100 | 86.7 | 35.7
CC(=O)[C@H]1CCC2[C@@H]3CC=C4C(O)C(OS(=O)(=O)O)CC[C@]4(C)C3CC[C@@]21C (stereo partly specified) | > 100 | > 100 | > 100 | > 100 | > 100 | > 100 | > 100 | > 100 | – | – | – | – | – | – | – | – | – | –
COC1=CC(=O)c2c(cc(COP(=O)(N(C)CCBr)N(C)CCBr)n2C)C1=O | – | 3.62 | 0.971 | – | 2.26 | 6.55 | 19 | 5.23 | – | – | – | – | – | – | – | 2.87 | 2.01 | 3.94
CC(=O)O[C@H]1C(=O)[C@@]2(C)C(C(OC(=O)c3ccccc3)[C@]3(O)CC(OC(=O)C(O)C(NC(=O)c4ccccc4)c4ccc(C)cc4)C(C)=C1C3(C)C)[C@]1(OC(C)=O)CO[C@@H]1C[C@@H]2O (stereo partly specified) | 0.168 | – | 1.31 | 23.6 | 6.51 | > 25 | 9.81 | 24.1 | – | – | – | – | – | – | – | 6.68 | > 25 | –
c1ccc2c(c1)c1c3n2-c2cc(on2)C3CCC1 (stereo unspecified) | – | > 100 | > 100 | – | > 100 | > 100 | > 100 | > 100 | – | – | – | – | – | – | – | > 100 | > 100 | > 100
Cc1nn(-c2ccccn2)c2c1C(SC#N)=C(C=O)CC2 | – | > 100 | 30.1 | – | 18.3 | 36.1 | 6.43 | 22.3 | – | – | – | – | – | – | – | 25.1 | 6.03 | 38.9
C=C1CC(OC)(C(O)C(=O)N[C@H]2OCO[C@H]3C2O[C@H](C[C@H](O)COC)C(C)(C)C3OC)O[C@H](C)[C@@H]1C (stereo partly specified) | > 0.00772 | > 0.00772 | > 0.00772 | > 0.00772 | > 0.00772 | > 0.00772 | > 0.00772 | > 0.00772 | – | – | – | – | – | – | – | – | – | –
O=c1oc2ccccc2c(O)c1Cc1cccc(Cc2c(O)c3ccccc3oc2=O)c1 | – | > 100 | > 100 | – | > 100 | > 100 | > 100 | > 100 | – | – | – | – | – | – | – | > 100 | > 100 | > 100
O=C(NCCCCNCCCNC(=O)OCc1ccccc1)OCc1ccccc1 | – | 51.5 | 89.4 | – | 37.1 | > 100 | 82.1 | > 100 | – | – | – | – | – | – | – | 55.5 | > 100 | > 100
Cc1ccc(S(=O)(=O)N2CCN(CCO)CCN(S(=O)(=O)c3ccc(C)cc3)CCN(CCO)CC2)cc1 | – | > 100 | 92.4 | – | 37.7 | 39.1 | 54 | 81.5 | – | – | – | – | – | – | – | 67 | > 100 | > 100
CCOC(=O)C1=C(C)N(c2ccc(C)cc2)C2(O)C=CC(=O)C3=C(O)c4ccccc4C(=O)C312 (stereo unspecified) | – | > 100 | 68.6 | – | > 100 | > 100 | > 100 | > 100 | – | – | – | – | – | – | – | > 100 | > 100 | 49.3
O=S(=O)(O)c1ccc(Nc2ccnc3cc(Cl)ccc23)cc1 | – | > 100 | > 100 | – | > 100 | > 100 | > 100 | > 100 | – | – | – | – | – | – | – | > 100 | > 100 | > 100
